Reference: patent US9993494B2, “Compositions and methods for treating fibrotic disease” (eFFECTOR Therapeutics, Inc., priority 2014, dated 2018)

Tested on: normal human lung fibroblasts
Assay: Ribosomal profiling: translational efficiency in TGFβ-treated fibroblasts
Assay type: cell-based
Settings: TGFβ-treated fibroblasts
Outline: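 Genome-wide RPF and total RNA libraries (ARTseq, RNA-Seq) were made from lysates of cycloheximide-treated, PBS-washed cells. After trimming and human-genome mapping, per-gene coding-region counts were compared between RPF and RNA for translational efficiency. Genes scoring low in either fraction were dropped.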

Measured: effect in renormalizing the translational profile of the gene

CC(C=CC(=O)NO)=CC(C)C(=O)c1ccc(N(C)C)cc1 (stereo not drawn) [TSA, 7-[4-(dimethylamino)phenyl]-N-hydroxy-4,6-dimethyl-7-oxohepta-2,4-dienamide]
++ (++ = 1.5 to 2.0): gene SLC15A3 (ENSG00000110446)
− (− = <0.9): gene RPS6 (ENSG00000137154) | gene RPS6KA5 (ENSG00000100784) | gene RPS7 (ENSG00000171863) | gene RPS8 (ENSG00000142937) | gene RPS9 (ENSG00000170889) | gene RPS10 (ENSG00000124614) | gene RPS11 (ENSG00000142534) | gene RPS12 (ENSG00000112306) | gene RPS13 (ENSG00000110700) | gene RPS14 (ENSG00000164587) | gene RPS15 (ENSG00000115268) | gene RPS15A (ENSG00000134419) | gene RPS16 (ENSG00000105193) | gene RPS18 (ENSG00000231500) | gene RPS19 (ENSG00000105372) | gene RPS20 (ENSG00000008988) | gene RPS21 (ENSG00000171858) | gene RPS23 (ENSG00000186468) | gene RPS24 (ENSG00000138326) | gene RPS25 (ENSG00000118181) | gene RPS26 (ENSG00000197728) | gene RPS27 (ENSG00000177954) | gene RPS27A (ENSG00000143947) | gene RPS28 (ENSG00000233927) | gene RPS29 (ENSG00000213741) | gene RPSA (ENSG00000168028) | gene RTN2 (ENSG00000125744) | gene SEMA3A (ENSG00000075213) | gene SGIP1 (ENSG00000118473) | gene SH3BGR (ENSG00000185437) | gene SLC2A12 (ENSG00000146411) | gene SLC7A7 (ENSG00000155465) | gene SLC25A6 (ENSG00000169100) | gene SMO (ENSG00000128602) | gene SNRPA (ENSG00000077312) | gene SOX6 (ENSG00000110693) | gene SPATA6 (ENSG00000132122) | gene STS (ENSG00000101846) | gene SYNE2 (ENSG00000054654) | gene TDG (ENSG00000139372) | gene TEN1 (ENSG00000257949) | gene TET2 (ENSG00000168769) | gene TET3 (ENSG00000187605) | gene TGFBI (ENSG00000120708) | gene THBS3 (ENSG00000169231) | gene THG1L (ENSG00000113272) | gene TIMM9 (ENSG00000100575) | gene TKT (ENSG00000163931) | gene TOMM7 (ENSG00000196683) | gene TOP2A (ENSG00000131747) | gene TPGS1 (ENSG00000141933) | gene TPM2 (ENSG00000198467) | gene TPT1 (ENSG00000133112) | gene TRERF1 (ENSG00000124496) | gene UBA52 (ENSG00000221983) | gene UQCRB (ENSG00000156467) | gene UTRN (ENSG00000152818) | gene VIM (ENSG00000026025) | gene ZNF581 (ENSG00000171425)
+ (+ = 0.9 to 1.5): gene SHC3 (ENSG00000148082) | gene SLC40A1 (ENSG00000138449) | gene SOX5 (ENSG00000134532) | gene STAMBPL1 (ENSG00000138134) | gene TAF1D (ENSG00000166012) | gene TMTC1 (ENSG00000133687)
